In brackets after ≈: the same amount, converted by molar mass.

What all share (type): functional
In experiment [1] the test system is Klebsiella pneumoniae. Nature of the experiment: Antibacterial activity against Klebsiella pneumoniae NK29 by broth microdilution test. In general terms: Broth dilution looks for growth in wells or tubes with falling amounts of substance.
The subject of experiment [2] is Escherichia coli. In words: Antibacterial activity against plasmid pK29 transconjugant Escherichia coli J53 by broth microdilution test.
The subject of experiment [3] is Escherichia coli. Nature of the experiment: Antibacterial activity against Escherichia coli J53 by broth microdilution test.
Experiment [4] relates to Klebsiella pneumoniae. Nature of the experiment: Antibacterial activity against Klebsiella pneumoniae NK29 by Etest.
The subject of experiment [5] is Escherichia coli. Nature of the experiment: Antibacterial activity against plasmid pK29 transconjugant Escherichia coli J53 by Etest.
Experiment [6] relates to Klebsiella pneumoniae. In words: Antibacterial activity against Klebsiella pneumoniae NK29 assessed as inhibition zone diameter by CLSI disk diffusion confirmatory test. Background: A growth-free zone around the sample is the usual read-out of agar diffusion tests.
Experiment [7] concerns Escherichia coli. Nature of the experiment: Antibacterial activity against Escherichia coli J53 by Etest.
Experiment [8] concerns Escherichia coli. Nature of the experiment: Antibacterial activity against Escherichia coli J53 assessed as inhibition zone diameter by CLSI disk diffusion confirmatory test.
Experiment [9] concerns Escherichia coli. In words: Antibacterial activity against plasmid pK29 transconjugant Escherichia coli J53 assessed as inhibition zone diameter by CLSI disk diffusion confirmatory test.

Usually MIC stands for the least concentration at which growth counts as inhibited. A lower MIC goes with a more susceptible organism. For the molecule `Cc1cc(NS(=O)(=O)c2ccc(N)cc2)no1` [SULFAMETHOXAZOLE], the MIC in [1] was greater than 512 µg/mL; in experiment [2], greater than 512 µg/mL; in [3], no more than 64 µg/mL.
With `C[C@@H](O)[C@H]1C(=O)N2C(C(=O)O)=C(SCCNC=N)C[C@H]12` [IMIPENEM ANHYDROUS], the MIC in experiment [4] and in [5] was 0.25 µg/mL (≈ 0.835 µM) in each case.
Turning to `NC[C@H]1O[C@H](O[C@H]2[C@H](O)[C@@H](O[C@H]3O[C@H](CO)[C@@H](O)[C@H](N)[C@H]3O)[C@H](N)C[C@@H]2N)[C@H](O)[C@@H](O)[C@@H]1O` [KANAMYCIN], the MIC in experiment [1] is 32 µg/mL (≈ 66 µM); in [2], 32 µg/mL (≈ 66 µM); in [3], 8 µg/mL (≈ 16.5 µM).
With `CO/N=C(\C(=O)N[C@@H]1C(=O)N2C(C(=O)O)=C(COC(C)=O)CS[C@H]12)c1csc(N)n1` [CEFOTAXIME], the “inhibition zone (IZ)” value is recorded as 13 mm in experiment [6], 31 mm in [8] and 16 mm in experiment [9]. For the same molecule, the minimal inhibitory concentration (MIC) came to 0.064 µg/mL (≈ 0.141 µM) in experiment [7], 32 µg/mL (≈ 70.3 µM) in [4] and 24 µg/mL (≈ 52.7 µM) in [5].
With `CO/N=C(\C(=O)N[C@@H]1C(=O)N2C(C(=O)O)=C(CSc3nc(=O)c(O)nn3C)CS[C@H]12)c1csc(N)n1` [CEFTRIAXONE], the MIC in experiment [7] was determined as 0.19 µg/mL (≈ 0.343 µM); in experiment [4] it was 24 µg/mL (≈ 43.3 µM); in experiment [5] it was 16 µg/mL (≈ 28.9 µM).
In the case of `O=C(N[C@H](CO)[C@H](O)c1ccc([N+](=O)[O-])cc1)C(Cl)Cl` [CHLORAMPHENICOL], the values for the minimum inhibitory concentration (MIC) in experiment [7], in experiment [4] and in experiment [5] were 4 µg/mL (≈ 12.4 µM), 96 µg/mL (≈ 297 µM) and 96 µg/mL (≈ 297 µM), respectively.
Take `CO/N=C(\C(=O)N[C@@H]1C(=O)N2C(C(=O)[O-])=C(C[N+]3(C)CCCC3)CS[C@H]12)c1csc(N)n1` [CEFEPIME]: the MIC amounted to 0.094 µg/mL (≈ 0.196 µM) in experiment [7], 2 µg/mL (≈ 4.16 µM) in experiment [4] and 1 µg/mL (≈ 2.08 µM) in experiment [5].
On to `CO[C@@]1(NC(=O)Cc2cccs2)C(=O)N2C(C(=O)O)=C(COC(N)=O)CS[C@@H]21` [CEFOXITIN], for which the figures for the MIC in experiment [7], in [4] and in [5] were 4 µg/mL (≈ 9.36 µM), greater than 256 µg/mL and greater than 256 µg/mL, respectively.
For `CN(C)[C@@H]1C(O)=C(C(N)=O)C(=O)[C@@]2(O)C(O)=C3C(=O)c4c(O)cccc4[C@@](C)(O)[C@H]3C[C@@H]12` [TETRACYCLINE], the results for the MIC in [7], in [4] and in experiment [5] were 2 µg/mL (≈ 4.5 µM), 8 µg/mL (≈ 18 µM) and 2 µg/mL (≈ 4.5 µM), respectively.
As for `C[C@H]1[C@H](NC(=O)/C(=N\OC(C)(C)C(=O)O)c2csc(N)n2)C(=O)N1S(=O)(=O)O` [AZTREONAM], the MIC in [4] was determined as 4 µg/mL (≈ 9.19 µM); in [5], 2 µg/mL (≈ 4.59 µM).
The molecule `O=C(O)c1cn(C2CC2)c2cc(N3CCNCC3)c(F)cc2c1=O` [CIPROFLOXACIN] came in with an MIC in experiment [4] of 0.047 µg/mL (≈ 0.142 µM).
As to `CC(C)(O/N=C(\C(=O)N[C@@H]1C(=O)N2C(C(=O)[O-])=C(C[n+]3ccccc3)CS[C@H]12)c1csc(N)n1)C(=O)O` [CEFTAZIDIME], the “inhibition zone (IZ)” value worked out at 17 mm in experiment [6], 33 mm in [8] and 27 mm in experiment [9]. Moreover, the figures for the MIC in [7], in experiment [4] and in experiment [5] were 0.19 µg/mL (≈ 0.348 µM), 16 µg/mL (≈ 29.3 µM) and 1.5 µg/mL (≈ 2.74 µM), respectively.

For the origin of these results see ChEMBL document CHEMBL1155164, “Sequencing and comparative genomic analysis of pK29, a 269-kilobase conjugative plasmid encoding CMY-8 and CTX-M-3 beta-lactamases in Klebsiella pneumoniae” (2007).
